In patent US6737383B1, “Herbicidal oxadiazolidines” (priority 1999, dated 2004):

Tested on: barnyardgrass
Test: Test C postemergence barnyardgrass
Assay type: in vivo, Echinochloa crus-galli
Settings: 0 to 100 scale, 0 no effect, 100 complete control
In short: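 Visual injury scored 0-100 (100 = complete control) versus untreated plants roughly 14 to 21 days after treatment. Plants were grown to suitable size in 60:40 sandy loam and potting mix, then treated postemergence with surfactant-containing solvent formulations.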

Structure (SMILES): CC(C)N(C(=O)n1oc(=O)n(C(C)C)c1=O)c1ccccc1 [Compound 113]
- Plant response rating, Barnyardgrass (Rate 140 g/ha): 80
- Plant response rating, Barnyardgrass (Rate 280 g/ha): 80
- Plant response rating, Barnyardgrass (Rate 560 g/ha): 85
- Plant response rating, Barnyardgrass (Rate 1120 g/ha): 95
